For two molecules, inhibition of ovulation, IC50 and cytotoxicity results are on record in patent publication US12310980B2, “Synthesis of a potent aromatase inhibitor 17α-acetoxy-10β,11β-dihydroxy-progesterone for the treatment of ER+ breast cancer” (priority 2023, dated 2025).

Read-outs that look alike come from different tables or passages of the source.

Series [1] has as its system ovulation. As to conditions: oral dosage of 10 mg/day in combination with 50 μg/day ethinylestradiol; cited from earlier work.
Series [2] concerns the target T1, human aromatase (Homo sapiens, UniProt P11511).
T1 construct: containing protein (2 mg) from human placental microsomes; from tissue; host or cells: human placenta (microsomes)
T1 sequence (P11511 1-503): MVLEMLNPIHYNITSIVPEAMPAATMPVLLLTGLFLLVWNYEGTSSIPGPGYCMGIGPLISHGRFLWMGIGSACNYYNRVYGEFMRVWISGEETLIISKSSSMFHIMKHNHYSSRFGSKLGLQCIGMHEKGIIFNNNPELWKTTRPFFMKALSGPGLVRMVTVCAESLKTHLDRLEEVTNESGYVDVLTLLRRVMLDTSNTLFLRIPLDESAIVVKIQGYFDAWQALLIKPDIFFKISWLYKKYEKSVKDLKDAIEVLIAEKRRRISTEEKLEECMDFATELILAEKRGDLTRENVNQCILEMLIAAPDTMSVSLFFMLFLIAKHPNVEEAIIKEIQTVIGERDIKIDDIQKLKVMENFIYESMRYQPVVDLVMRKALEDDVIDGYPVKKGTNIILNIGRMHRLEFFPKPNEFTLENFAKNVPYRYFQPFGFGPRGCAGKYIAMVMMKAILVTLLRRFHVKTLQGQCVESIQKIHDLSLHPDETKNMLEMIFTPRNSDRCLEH
The series can be described thus: UPLC-based aromatase inhibition assay. The series is classed as biochemical.

The test system of series [3] is human fibroblast cell line. Nature of the series: cytotoxicity against human fibroblast cell line.

The IC50 is the midpoint of a concentration-inhibition curve. As to `CC(=O)O[C@]1(C(C)=O)CC[C@H]2[C@@H]3CCC4=CC(=O)CC[C@@H]4[C@H]3CC[C@@]21C` [Compound 1, 17α-acetoxy-19-nor-progesterone], in series [1], the inhibition of ovulation result is reported as “inhibit ovulation”. Further, the IC50 in series [2] (in vitro, human placental microsomes, testosterone substrate, read-out: aromatase inhibition IC50) turned out to be 740 ± 24.1 nM.
On to `CC(=O)O[C@]1(C(C)=O)CC[C@H]2[C@@H]3CCC4=CC(=O)CC[C@]4(O)[C@H]3[C@@H](O)C[C@@]21C` [Compound 2, 17α-Acetoxy-10β,11β-dihydroxy-progesterone], for which, in series [3], the cytotoxicity entry was “non-cytotoxic”. The molecule also showed an IC50 in series [2] of 827 ± 66 nM.
